Laboratory results from patent publication US9333212B2, “Proteasome inhibitors as ovoprotective agents to shield the ovary from chemotherapy toxicity” (Wisconsin Alumni Research Foundation, priority 2013, dated 2016).
Entries after “also recorded” stand apart in the source; their conditions may differ. Residues, ends and D or L forms follow the SMILES beside them. *: point of attachment. Cbz = O=C(OCc1ccccc1)*

Assays:
mouse ovarian follicles [1] = experiment: TUNEL assay, follicular apoptotic index in mouse ovary; format: in vivo
Description: FIG. 5. […] Ovaries were harvested from treated mice 12 hrs post-DXR injection, fixed, and processed for the TUNEL assay. Apoptotic index measures the fraction of cells dying via apoptosis in each group. *p<0.05 one-way ANOVA n=4 mice.
To determine whether Bort pretreatment prevents DXR-induced follicular apoptosis, ovaries were harvested from mice treated with control, DXR, or Bort+DXR, 12 hrs after chemotherapy administration. Ovaries were fixed and stained using the TUNEL assay. Follicles were scored as apoptotic if they contained ≧4 TUNEL-positive granulosa cells.
TUNEL Staining. Apoptosis was detected utilizing ApopTag Plus Fluorescein In Situ Apoptosis Detection Kit as previously described. Nuclei were counterstained with 0.5 ug/mL Propidium Iodide. Apoptotic index was determined only counting follicles containing a visible oocyte; follicle types were differentiated by standard morphology and size ranges. Primary, secondary, and antral follicles were considered positive if they had ≧4 TUNEL-positive granulosa cells.
To ascertain whether Bort pretreatment prevents DXR-induced follicular apoptosis, ovaries were harvested from mice treated with control vehicle, Bort, DXR, or Bort+DXR, 12 hrs after chemo administration.

KK-15 cells = experiment: DXR LD50 in KK-15 cells; format: cell-based
Description: (§1) KK-15 cells were pretreated with either Bort or MG-132, boronate and aldehyde inhibitors, respectively, for 1 hr prior to DXR.

female CD-1 mice = experiment: Breeding trial: pup birth weight and litter size of treated female mice; format: in vivo, mouse
Procedure: Both drugs were administered via i.p. injection. Female mice were then mated with proven fertile males starting at 8 weeks of age. Females were mated continuously with males, separated only for pup delivery, then re-mated immediately with rotated males. Pregnancy and litters were followed until females reached 8 months of age or became infertile.

[2] = system: mouse ovarian cells (granulosa, stromal/thecal cells, oocytes); details: previous characterization, cited from earlier work
mouse ovarian follicles [3] = details: previous characterization, cited from earlier work
[4] = in vivo; cited from earlier work
[5] = 1 month post-DXR; cited from earlier work
[6] = system: γH2AX phosphorylation, PTEN, phospho-AKT1, Caspase 3 in mouse ovary; experiment: Western blots of ovarian lysates for cell response markers
Procedure: Lysate Preparation and Western Blots. Ovaries were homogenized, protein quantified, and WBs were conducted previously described [9]. Blots were probed with rabbit anti-γH2AFX antibody (Abcam, 1:500), and mouse anti-β actin (Sigma, 1:10,000), rabbit anti-phospho AKT1 (Cell Signaling 1:1000), rabbit anti-PTEN (Cell Signaling 1:1000), and rabbit anti-Caspase 3 (Cell Signaling 1:1000. WBs were scanned and analyzed using the 5 LiCor Odyssey System (UW-Small Molecule Screening Facility) [9].
Mice. […] Four-week old female CD1 mice were treated with 0.143 mg/kg Bort or vehicle control, followed by 20 mg/kg DXR (twice the human equivalent dose) or saline via intraperitoneal injection (200 μL total volume/injection) 1 hour later. Three mice were injected per time point, 2, 4, 6, 12, and 24 hours, as indicated. Mice were euthanized with CO2 per approved protocol, and ovaries were processed as previously described [13].
To determine whether Bort prevents the cellular response to DXR insult, Western blots (WBs) of ovarian lysates were probed for cell response markers at 6 and 24 hrs post-injection.

[7] = system: mouse ovarian cells (granulosa, stromal/thecal cells, oocytes); experiment: Neutral comet assay of dsDNA breaks in ovarian cells isolated from treated mice
Procedure: The neutral comet assay was used to measure acute DXR-induced double-strand DNA breaks in an in vivo mouse model as previously described [32]. 4-week-old adolescent female CD1 mice were pre-treated with intraperitoneal (i.p.) injection of 0.143 mg/kg Bort 1 hr prior to 20 mg/kg DXR.
Four-week old female CD1 mice were treated with 0.143 mg/kg Bort or vehicle control, followed by 20 mg/kg DXR (twice the human equivalent dose) or saline via intraperitoneal injection (200 μL total volume/injection) 1 hour later. Three mice were injected per time point, 2, 4, 6, 12, and 24 hours, as indicated.
Neutral Comet Assay. Ovaries were processed to provide enriched populations of granulosa cells/oocytes, and stromal/thecal cells that were utilized in the neutral comet assay [9, 13]. At least 100 granulosa and stromal cells and 50 oocytes were imaged from blinded slides per time point per mouse (3 mice/replicate) [9, 13]. The comet moment to quantify DNA damage was scored using CometScore software. Data were normalized to control for each experiment to allow pooling across experiments.
Four week-old adolescent mice were pretreated with 0.143 mg/kg Bort or vehicle control via i.p. injection 1 hour prior to 20 mg/kg DXR i.p. injection. The Bort dose corresponded to ⅓ the lowest human equivalent dose utilized in chemo regimens (0.43 mg/m2 vs. 1.3 mg/m2), while the DXR dose was double the standard human equivalent dose to allow direct imaging of DXR fluorescence in subsequent experiments.

KK-15 granulosa cells = experiment: Neutral comet assay in KK-15 cells pretreated with proteasome inhibitor before DXR; format: cell-based; details: 1 h pretreatment, then 3 hr 50 nM DXR
Procedure: FIG. 6. […] (A) Pretreating KK-15 cells for 1 h with the indicated Bortezomib doses prevented dsDNA breaks caused by 3 hr, 50 nM DXR treatment, as measured by the NCA. […] Bar graphs summarize comet moment data. Bortezomib (n=3, ***p<0.001), MG-132, (n=4, ***p<0.001) ANOVA with Bonferroni means comparison.
as §1

L1210 cells = details: cited from earlier work
[8] = system: cardiac-derived H9C2 cells; details: cited from earlier work
rodent ovary = details: in vivo; cited from earlier work
[9] = DXR accumulation in mouse ovary by autofluorescence (spectral confocal imaging); format: in vivo; details: Bort pretreatment before DXR
Description: FIG. 11. […] A. Micrographs of mouse ovarian sections obtained by spectral confocal imaging (ex. 488 nm, em. given in panel B). Images are overlays of all collected emission wavelengths. Bar=40 μm. For print, images were adjusted equally to a threshold of 140 in Photoshop with no other image enhancements. B. Graph plots mean fluorescence intensity+/−SEM quantified from raw DXR fluorescence in ovarian sections representing the top, middle, and bottom third of the ovary. Emission profiles at 550-560 nm (cold finger) were not collected by the microscope to prevent direct detection of the excitation laser at that wavelength. Confocal parameters were identical from one sample to the next. DXR points are statistically significant from ctl and Bort-DXR with p<0.05, one-way ANOVA, Bonferroni means comparison.
Fluorescence Microscopy. Images were collected using a Nikon A1 laser scanning microscope with a motorized stage to image the entire section at 400× magnification. Each spectral image was taken at the Z plane providing maximal signal in the section utilizing identical laser settings with the spectral scan head, exciting at 488 nm and collecting emissions from 520 nm through 720 nm at 10 nm intervals. […] Total DXR fluorescence was measured in each section image using Nikon Elements, quantifying fluorescent intensity at each emission wavelength.

kidney = details: by preserving Mcl-1 levels; cited from earlier work
[10] = Bort pretreatment vs DXR alone, 12 hrs post-DXR
[11] = Bort pretreatment, 24 hrs post-injection

Compound: COc1cccc2c1C(=O)c1c(O)c3c(c(O)c1C2=O)C[C@@](O)(C(=O)CO)C[C@@H]3O[C@H]1C[C@H](N)[C@H](O)[C@H](C)O1 [DXR, Doxorubicin]
- apoptotic-positive secondary follicles (mouse ovarian follicles [1]; DXR alone, 12 hrs): doubling of apoptotic-positive secondary follicles
- LD50 (KK-15 cells): 50 nM
- litter size relative to control (female CD-1 mice; 10 mg/kg DXR): 50 % of control
- decrease of pup birth weight compared to controls (female CD-1 mice; 10 mg/kg DXR i.p. to 4 week old females): 17%
- litter size (female CD-1 mice; 10 mg/kg DXR, over mating rounds): 5-8 pups/litter
- increase of DNA damage over control, granulosa cells ([2]; DXR): ~2 fold
- maximal increase of DNA damage, stromal cells ([2]; DXR): 50%
- time of first DNA damage, granulosa cells ([2]; post-injection): 4 h
- time of first DNA damage, stromal/theca cells ([2]; post-injection): 2 h
- time of first significant DNA damage over control, oocytes ([2]; post-injection): 10 to 12 h
- apoptotic index, antral follicles (mouse ovarian follicles [3]; 8 hrs post-DXR): 100%
- apoptotic index, primary follicles (mouse ovarian follicles [3]; 12 hours post-DXR): 12%
- apoptotic index, secondary follicles (plateau) (mouse ovarian follicles [3]; 12 hours post-DXR): 40%
- time of first apoptotic events in primordial follicles (mouse ovarian follicles [3]; post-DXR): 48 h
- time to clearance from the blood stream [4]: 15 to 30 min
- ovulation rate relative to pre-DXR [5]: 50%
- PTEN protein expression ([6]; DXR alone, 6 hrs post-injection): appeared to decrease PTEN protein expression levels
- phosphorylated AKT1 (pAKT1) levels ([6]; DXR alone, 24 hrs post-injection): appeared to decrease levels of phosphorylated AKT1
- γH2A.X phosphorylation (17 kDa band) ([6]; DXR alone, ovarian lysates 6 hrs post-injection): increased γH2A.X phosphorylation
- comet moment (dsDNA breaks), stromal cells ([7]; 20 mg/kg DXR i.p. alone): 150 % control values
- comet moment (dsDNA breaks), granulosa cells ([7]; 20 mg/kg DXR i.p. alone, rise over 2-24 hrs post-injection): 250 % control values

Compound: CC(C)C[C@@H](C=O)NC(=O)[C@H](CC(C)C)NC(=O)[C@H](CC(C)C)NC(=O)OCc1ccccc1 [MG-132] (Cbz-Leu-Leu-Leu-aldehyde)
- DXR-induced dsDNA breaks in KK-15 cells (comet moment) (KK-15 granulosa cells): limited DXR-induced dsDNA breaks; also recorded: prevented DNA damage
- DXR nuclear accumulation in L1210 cells (L1210 cells): prevent DXR nuclear accumulation
- DXR-induced DNA damage in H9C2 cells [8]: prevents DXR-induced DNA damage

Compound: N.N.[Cl][Pt][Cl] [cisplatin]
- circulating and follicular anti-mullerian hormone (AMH) levels (rodent ovary): decreases circulating and follicular levels of anti-mullerian hormone (AMH)
- pregnancy rates and pups per litter (rodent ovary): decreases pregnancy rates and pups per litter

Compound: CC(C)C[C@H](NC(=O)[C@H](Cc1ccccc1)NC(=O)c1cnccn1)B(O)O [Bort, bortezomib]
- DXR-induced apoptosis in the mouse ovary / ovarian follicles (mouse ovarian follicles [1]; 0.143 mg/kg Bort 1 hr before 20 mg/kg DXR, 12 hrs): attenuates DXR-induced apoptosis; also recorded: prevented DXR-induced apoptosis
- antral follicle apoptotic index (mouse ovarian follicles [1]; [10]): small decrease in the antral follicle apoptotic index; also recorded: did not prevent antral follicle apoptosis
- primary follicle apoptosis (TUNEL) (mouse ovarian follicles [1]; [10]): decreased apoptosis in primary follicles; also recorded: appeared to decrease apoptosis in primary follicles
- secondary follicle apoptosis (TUNEL) (mouse ovarian follicles [1]; [10]): levels not different from control; also recorded: significantly attenuated TUNEL signal in secondary follicles
- DXR fluorescence (accumulation) in the ovary [9]: dropped DXR fluorescence to baseline levels; also recorded: lack of chemo accumulation; also recorded: prevented DXR accumulation
- DXR-induced dsDNA breaks in KK-15 cells (comet moment) (KK-15 granulosa cells): prevented DNA damage
- DXR-induced dsDNA breaks in KK-15 cells (comet moment) (KK-15 granulosa cells; listed as Bortezomib): limited DXR-induced dsDNA breaks
- pup weight, deviation from control (female CD-1 mice; 0.143 mg/kg Bortezomib 1 hour before 10 mg/kg DXR): ≤ 6 % of control
- litter size, mating round 1 (female CD-1 mice; Bort-DXR treated mice, round 1): 8 pups
- litter size, mating round 6 (female CD-1 mice; Bort-DXR treated mice, round 6, end of the trial): 12 pups
- DXR nuclear accumulation in L1210 cells (L1210 cells): prevent DXR nuclear accumulation
- protection of the kidney from cisplatin toxicity (kidney): shields the kidney from cisplatin toxicity
- DXR-induced γH2A.X phosphorylation ([6]; 1 hr Bort pretreatment, 6 hrs post-DXR injection): attenuated DXR-induced γH2A.X phosphorylation; also recorded: attenuates γH2AX phosphorylation
- DXR-induced PTEN protein reduction ([6]; Bort pretreatment, 6 hrs post-injection): PTEN protein reduction was eliminated
- DXR-induced decrease of full-length Caspase 3 [6, 11]: prevented
- DXR-induced loss of pAKT1 [6, 11]: similarly prevented; also recorded: restored AKT1 phosphorylation to control levels
- comet moment, stromal cells, deviation from control ([7]; 0.143 mg/kg Bort i.p. 1 hr before 20 mg/kg DXR): ≤ 16 % of control
- comet moment, granulosa cells, deviation from control ([7]; 0.143 mg/kg Bort i.p. 1 hr before 20 mg/kg DXR, 2-24 hrs): ≤ 10 % of control
- DXR-induced DNA damage in stroma cells ([7]; Bort pretreatment, 4 hrs post-DXR): attenuates DXR-induced DNA damage
- DXR-induced DNA damage in granulosa and stromal cells ([7]; Bort pretreatment, 12 hrs post-DXR): attenuates DXR-induced DNA damage
- DXR-induced DNA damage in granulosa cells ([7]; Bort pretreatment, 24 hrs post-DXR): attenuates DXR-induced DNA damage
- DXR-induced DNA damage in oocytes ([7]; Bort pretreatment, 24 hrs post-DXR injection): completely blocked DNA damage
- DXR-induced dsDNA breaks in all ovarian cell types (granulosa, stromal cells, oocytes) ([7]; Bort pretreatment, entire 24 hour acute insult period): completely prevented DXR-induced DNA damage; also recorded: blocked DXR-induced dsDNA breaks; also recorded: prevents DXR-induced dsDNA breaks; also recorded: prevented DXR-induced double strand DNA breaks
- comet moment in stromal cells at 2 hrs ([7]; Bort-DXR mice, 2 hrs, followed by a drop back to baseline): small rise in comet moment
